Laboratory results from patent US11873298B2, “Compounds and uses thereof” (JANSSEN PHARMACEUTICA NV, priority 2017, dated 2024).

How the values were obtained:
[1] = target: T1, Ole1 (Saccharomyces cerevisiae, UniProt P21147); assay: Growth inhibition of yeast strain expressing Ole1 as sole desaturase; format: cell-based; conditions: yeast strain expressing Ole1 as sole desaturase
T1 construct: expressed in transfected cells; host or cells: S. cerevisiae ole1Δ strain (W303 pdr1Δ pdr3Δ background), plasmid pRS316 with TDH3 promoter and CYC1 terminator
T1 sequence (P21147 1-510): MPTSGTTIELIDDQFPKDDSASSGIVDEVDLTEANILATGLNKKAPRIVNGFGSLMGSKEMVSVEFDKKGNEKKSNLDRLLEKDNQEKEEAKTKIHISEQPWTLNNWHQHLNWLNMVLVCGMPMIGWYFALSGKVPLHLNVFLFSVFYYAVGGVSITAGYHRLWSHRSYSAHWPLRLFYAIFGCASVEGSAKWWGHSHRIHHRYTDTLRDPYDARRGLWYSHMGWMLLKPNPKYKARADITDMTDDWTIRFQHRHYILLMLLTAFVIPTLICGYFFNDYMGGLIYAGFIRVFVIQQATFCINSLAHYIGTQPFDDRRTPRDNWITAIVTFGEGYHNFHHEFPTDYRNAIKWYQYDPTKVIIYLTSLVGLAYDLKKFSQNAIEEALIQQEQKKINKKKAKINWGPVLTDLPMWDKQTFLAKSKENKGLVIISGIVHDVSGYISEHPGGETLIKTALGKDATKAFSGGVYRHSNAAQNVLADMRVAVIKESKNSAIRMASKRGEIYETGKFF
Outline: (§1)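 OD600 growth read-out. ole1Δ yeast, pdr1Δ pdr3Δ, with Ole1/SCD1/SCD5 on a plasmid; SX-Ura media throughout; 2× cell density 0.02 in CSM-Galactose; DMSO compound dilutions; humidified 30° C.; Ole1 stopped at 24 h, SCD1/SCD5 at 40 h.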

[2] = target: T2, SCD1 (Homo sapiens, UniProt O00767); assay: Growth inhibition of humanized yeast strain expressing SCD1 as sole desaturase; format: cell-based; conditions: humanized yeast strain expressing SCD1
T2 construct: host or cells: S. cerevisiae ole1Δ strain (W303 pdr1Δ pdr3Δ background), plasmid pRS316 with TDH3 promoter and CYC1 terminator
T2 sequence (O00767 1-359): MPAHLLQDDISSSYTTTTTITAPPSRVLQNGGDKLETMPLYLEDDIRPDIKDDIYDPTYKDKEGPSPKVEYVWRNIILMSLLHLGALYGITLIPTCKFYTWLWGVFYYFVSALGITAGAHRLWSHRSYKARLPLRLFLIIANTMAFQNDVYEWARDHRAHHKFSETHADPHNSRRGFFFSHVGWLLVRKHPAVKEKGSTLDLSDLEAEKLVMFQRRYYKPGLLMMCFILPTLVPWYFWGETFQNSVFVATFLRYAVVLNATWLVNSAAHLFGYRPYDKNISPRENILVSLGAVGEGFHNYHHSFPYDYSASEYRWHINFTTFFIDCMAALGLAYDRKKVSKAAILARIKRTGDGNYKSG
Outline: as §1

[3] = target: T3, SCD5 (Homo sapiens, UniProt Q86SK9); assay: Growth inhibition of humanized yeast strain expressing SCD5 as sole desaturase; format: cell-based; conditions: humanized yeast strain expressing SCD5
T3 construct: host or cells: S. cerevisiae ole1Δ strain (W303 pdr1Δ pdr3Δ background), plasmid pRS316 with TDH3 promoter and CYC1 terminator
T3 sequence (Q86SK9 1-330): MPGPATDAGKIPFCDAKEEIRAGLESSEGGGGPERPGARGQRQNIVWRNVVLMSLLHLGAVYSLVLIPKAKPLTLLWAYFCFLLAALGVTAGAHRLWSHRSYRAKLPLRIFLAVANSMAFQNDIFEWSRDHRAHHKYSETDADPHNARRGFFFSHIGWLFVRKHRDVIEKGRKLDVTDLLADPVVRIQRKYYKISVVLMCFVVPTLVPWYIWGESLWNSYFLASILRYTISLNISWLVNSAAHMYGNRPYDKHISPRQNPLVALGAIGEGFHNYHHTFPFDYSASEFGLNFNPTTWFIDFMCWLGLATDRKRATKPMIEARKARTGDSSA
Outline: as §1

[4] = test system: yeast strains expressing the human ApoE4; assay: Yeast ApoE4 toxicity rescue assay (OD600 growth); conditions: 24 h; for EC50: read-out: ApoE4 EC50; for Emax: read-out: ApoE4 Emax
Description: The induced expression of α-synuclein and ApoE4 confers cytotoxicity, thus enabling the identification of compounds that can restore cell viability. This instantaneous/synchronous induction of α-synuclein and ApoE4 can be achieved due to the following expression control. In glucose-containing media, gene expression from the GAL1 promoter is ‘off’ and actively repressed by additional epigenetic factors. In raffinose, expression is ‘off’, but the promoter not actively repressed. Upon transition to galactose-containing media, the promoter is instantaneously turned ‘on’ to achieve robust and synchronous induction of α-synuclein or ApoE4 expression. This highly regulated induction provides a robust window for the determination of both efficacy (amplitude of protective effect) and potency (concentration of protective effect) of cytoprotective compounds.
Re-suspended compound stocks were subsequently arrayed into 384 well compound plates using automated pipetting. All other wells not receiving stock compound were filled with 10 μL of 100% DMSO using an automated plate filler (Multidrop Combi). An 11 point, 2-fold serial dilution was then performed using the robotic platform. Compound assay plates were covered with foil and stored at −20° C. until use.
Each strain was handled according to standard protocols and cultured in media composed of CSM (complete synthetic media), YNB (yeast nitrogenous base), and a 2% (w/v) carbon source (either glucose, raffinose, or galactose).
In a standard yeast assay, a single-use aliquot of cells was thawed on ice and diluted into CSM/glucose (5 mL). Cultures were grown for 8 hours at 30° C. This pre-growth enables the yeast to exit the thaw and begin to grow without expressing aSyn or ApoE4. After 8 hours, cell density (OD600) was determined and cultures diluted to an OD600 of 0.01 in CSM/raffinose for an overnight culture phase at 30° C. During this period, the active glucose repression of the GAL1 promoter was relieved; however, expression of the α-Syn/ApoE4 genes were not yet induced. After ˜16 hours of growth, cultures attain an OD600 of 0.4-0.8 and were ready to apply to assay plates containing compound.
Compound profiling assays were executed in clear-bottom 384 well plates. First, compound plates were thawed at room temperature for 45′, centrifuged at 1,000×g for 1 minute, and the foil removed. Clear 384 well assay plates were then filled with 15 μL of CSM/galactose. […] The pin tool was washed iteratively with both 50% DMSO and 100% ethanol between each assay plate. After delivering compound to each assay plate, the overnight CSM/raffinose aSyn or ApoE4 cultures were added at a 2X cell density (0.04 for aSyn and 0.08 for ApoE4) in CSM/galactose to achieve a final assay OD600 of 0.02 and 0.04 for aSyn and ApoE, respectively. The cultures (15 μL per well) were then dispensed to the compound -containing 384 well assay plates using an automated plate filler. Plates were incubated in a humidified 30° C. incubator for 40 or 24 hours for aSyn and ApoE4, respectively. The ODsoo of each assay plate was then read with a microplate reader (e.g., Perkin Elmer Envision).
The efficacy and potency of compounds were calculated according to the following. Raw data (OD600 values) were first background corrected to account for OD600 contributed by the plate and media itself. The efficacy (percent above DMSO, herein referred to as “Emax”) was calculated according to the equation: (Experimental well−DMSO control well)/(DMSO control well)*100. […] Normalized dose-response data was fit with a logistic regression curve using Spotfire (TIBCO), or similar curve-fitting software package. EC50 values were then reported along with EMax to provide both efficacy and potency measures for each analog and enable further compound design.

[5] = test system: yeast strains expressing the human α-synuclein; assay: Yeast α-synuclein toxicity rescue assay (OD600 growth); conditions: 40 h; for EC50: read-out: α-Syn EC50; for Emax: read-out: α-Syn Emax

SMILES | IC50 [1] | OLE1 % Max Inhibition [1] | IC50 [2] | SCD1 % Max Inhibition [2] | IC50 [3] | SCD5 % Max Inhibition [3] | EC50 [4] | Emax [4] | EC50 [5] | Emax [5]
COc1ccc(-c2noc(C3CCN(C(=O)[C@@H]4CC(=O)N(c5ccc(C)c(C)c5)C4)CC3)n2)cc1 (single isomer, unassigned) [Compound 63] | > 45 µM | 101.06% | 33.7 µM | 62.04% | > 45 µM | 9.39% | 13.4 µM | 250% | 17.2 µM | 68%
CCOc1ccc(-c2noc(C3CCN(C(=O)CNC(=O)c4ccccc4)CC3)n2)cc1Br [compound 99] | > 45 µM |  | > 45 µM |  | > 45 µM |  | 2.75 µM | 663% | 1.03 µM | 209%
O=C(NCC(=O)N1CCC(c2nc(-c3ccc(F)c(F)c3)no2)CC1)c1ccccc1 [compound 24] | > 45 µM |  | > 45 µM |  | 30 µM |  | 13.3 µM | 301% | 5.13 µM | 76%
COc1ccc(-c2noc(C3CCN(C(=O)N4CCCCC4)CC3)n2)cc1OC [Compound 54] | > 45 µM | 85.34% | > 45 µM | 82.41% | > 45 µM | 47.60% | 17.3 µM | 240% | 9.1 µM | 95%
COc1ccc(-c2noc(C3CCN(C(=O)Cc4ccccc4)CC3)n2)cc1OC [Compound 44] | > 45 µM | 93.69% | > 45 µM | 17.96% | > 45 µM | 10.99% | 13.3 µM | 676% | 10.9 µM | 579%
COc1ccc(-c2noc(C3CCN(C(=O)CNC(=O)c4ccc(Cl)cc4)CC3)n2)cc1OC [compound 27] | > 45 µM |  | > 45 µM |  | > 45 µM |  | 0.39 µM | 761% | 0.059 µM | 589%
COc1cccc(-c2noc(C3CCN(C(=O)CNC(=O)c4ccc(C)c(C)c4)CC3)n2)c1 [compound 17] | > 45 µM |  | > 45 µM |  | > 45 µM |  |  | 246% | 17.4 µM | 330%
COc1ccc(-c2nc(C3CCN(C(=O)CNC(=O)c4ccccc4)CC3)no2)cc1OC [Compound 36] | > 45 µM | 17.70% | 30 µM | 64.67% | > 45 µM | 63.86% | 2.15 µM | 908% | 1.76 µM | 629%
CCOc1ccc(-c2noc(C3CCN(C(=O)CNC(=O)c4ccccc4)CC3)n2)cc1OC [Compound 155] |  | 1.65% | > 45 µM | 98.25% | 33.8 µM | 67.35% | 2.16 µM | 865% | 0.011 µM | 556%
COc1ccc(-c2noc(C3CCN(C(=O)CNC(=O)c4ccc(C)cc4)CC3)n2)cc1OC [compound 13] | > 45 µM |  | > 45 µM |  | > 45 µM |  | 0.368 µM | 837% | 0.058 µM | 712%
Cc1cccc(-c2nc(C3CCN(C(=O)[C@@H]4CC(=O)N(c5ccc(C)c(C)c5)C4)CC3)no2)c1 (single isomer, unassigned) [compound 74] | > 45 µM |  | 31.3 µM |  | > 45 µM |  |  | 411% | 17.9 µM | 155%
COc1ccc(-c2noc(C3CCN(C(=O)/C=C/C(=O)c4ccccc4)CC3)n2)cc1OC [Compound 33] | > 45 µM | 1.55% | > 45 µM | 8.14% | > 45 µM | 24.10% | 0.717 µM | 281% | 0.111 µM | 260%
COc1ccc(-c2noc(C3CCN(C(=O)CNC(=O)c4ccccc4)CC3)n2)cc1OC [Compound 7] | > 45 µM |  | 39.2 µM |  | > 45 µM |  | 0.176 µM | 782% | 0.04 µM | 594%
COc1ccc(-c2noc(C3CCN(C(=O)CNC(c4ccccc4)C(F)(F)F)CC3)n2)cc1OC (stereo not drawn) [Compound 34] | > 45 µM | 76.89% | > 45 µM | 42.55% | > 45 µM | 5.37% |  | 596% | 11.1 µM | 562%
COc1ccc(-c2noc(N3CCC(C(=O)NCCc4ccccc4)CC3)n2)cc1OC [Compound 49] | > 45 µM | 34.89% | > 45 µM | 61.29% | > 45 µM | 63.18% | 4.34 µM | 942% | 1.47 µM | 636%
COc1ccc(-c2noc(N3CCC(C(=O)N4CCCCC4)CC3)n2)cc1OC [compound 6] | 39.1 µM |  | > 45 µM |  | 41.1 µM |  | 15.1 µM | 815% | 10.2 µM | 460%
O=C(NCC(=O)N1CCC(c2nc(-c3ccccc3)no2)CC1)c1ccccc1 [compound 9] | > 45 µM |  | > 45 µM |  | > 45 µM |  |  | 301% | 12.1 µM | 167%
COc1ccc(-c2noc(C3CCN(C(=O)CNC(=O)c4ccccc4)CC3)n2)cc1 [compound 10] | > 45 µM |  | > 45 µM |  | > 45 µM |  | 4.61 µM | 736% | 4.87 µM | 392%
CCOc1ccc(-c2noc(C3CCN(C(=O)[C@@H]4CC(=O)N(c5ccccc5)C4)CC3)n2)cc1OC [compound 86] | > 45 µM |  | > 45 µM |  | 33.3 µM |  | 0.064 µM | 633% | 0.018 µM | 772%
COc1ccc(-c2noc(C3CCN(C(=O)[C@H]4CC(=O)N(c5ccc(C)c(C)c5)C4)CC3)n2)cc1OC (single isomer, unassigned) [compound 67] | > 45 µM |  | 40.7 µM |  | > 45 µM |  | 17.4 µM | 420% | 7.38 µM | 255%
O=C(NCC(=O)N1CCC(c2nc(-c3ccc(Cl)c(Cl)c3)no2)CC1)c1ccccc1 [compound 23] | > 45 µM |  | 33.6 µM |  | > 45 µM |  | 6.51 µM | 466% | 7.68 µM | 182%
COc1ccc(-c2noc(C3CCN(C(=O)C4CC(=O)N(c5ccc(C)c(C)c5)C4)CC3)n2)cc1OC (stereo not drawn) [compound 19] | > 45 µM |  | > 45 µM |  | > 45 µM |  | 5.63 µM | 891% | 2.43 µM | 574%
O=C(NCC(=O)N1CCC(c2nc(-c3ccc4ccccc4n3)no2)CC1)c1ccccc1 [compound 79] | > 45 µM |  | > 45 µM |  | > 45 µM |  | 18.8 µM | 631% | 9.91 µM | 627%
